Results: patent EP4741395A1, “NOVEL COMPOUND SENSITIVE TO NITROGEN MONOXIDE AND PHARMACEUTICAL COMPOSITION COMPRISING SAME” (Omniamed Co. Ltd, priority 2023, dated 2025)

Legend:
Raw 264.7 cell line = assay: NO scavenging activity in LPS-treated immune cells (Griess reagent); format: cell-based; settings: Mus musculus, RAW264.7, Raw 264.7, LPS 500 ng/mL, 24 hours, read-out: NO Scavenging Activity (%) (Mean±SD)
splenocytes [1] = assay: NO scavenging activity in Concanavalin A-treated splenocytes (Griess assay); format: cell-based, C57BL/6 mouse; settings: Mus musculus, Splenocyte, Concanavalin A 5 µg/mL, 72 hours, read-out: NO Scavenging Activity (%) (Mean±SD)
Experimental: (§1) A spleen was isolated from an 8-week-old C57BL/6 mouse, and splenocytes were isolated using a physical method.
(§2) The separated splenocytes were diluted to a concentration of 5×10^6 cells/mL in a RPMI 1640 medium including 10% FBS, 100 U/mL of penicillin and 100 µg/mL of streptomycin, and the diluted splenocytes were dispensed at 500 µL/well into a 48-well plate and 100 µL/well into a 96-well plate, and cultured for 72 hours in an incubator. The splenocytes were treated with Concanavalin A (5 µg/mL) when dispensed to induce an immune response, and herein, […] of the pharmaceutical composition including the compound according to each of the Examples was also added thereto. After 72 hours, the supernatant was collected, and the level of remaining NO was checked through a Griess assay, and calculated by the following Equation 4.

IFN-γ = IFN-γ reduction activity in Concanavalin A-treated splenocytes (quantitative ELISA); format: cell-based, C57BL/6 mouse; settings: Mus musculus, Splenocyte, Concanavalin A 5 µg/mL, 72 hours, read-out: IFN-γ Reduction Activity (%) (Mean±SD)
Experimental: as §1, §2
NO is one of important inflammatory mediators, and may increase the level of inflammatory cytokine. Concanavalin A (5 µg/mL), which induces an immune response in splenocytes, and the compound of each of Examples were treated in a concentration-dependent manner to check whether the level of IFN-γ, a representative inflammatory cytokine, was reduced. The supernatant was collected 72 hours after the treatment, and analyzed using a quantitative enzyme-linked immunosorbent assay (Quantitative-ELISA).

splenocytes [2] = assay: Inhibitory activity on cell proliferation in splenocytes (CCK-8 analysis); format: cell-based, C57BL/6 mouse; settings: Mus musculus, Splenocyte, Concanavalin A 5 µg/mL, 72 hours, read-out: Inhibitory Activity on Cell Proliferation (%) (Mean±SD)
JAK 2 = molecular target: T1, JAK 2 (Homo sapiens, UniProt O60674); assay: JAK Human TK kinase enzymatic radiometric assay (Eurofins), JAK 2; format: biochemical; set-up: unit not given here; settings: value close to 100 indicates low JAK activity of the compound
T1 construct: purchased Eurofins Scientific (assay service)
T1 sequence (O60674 whole entry): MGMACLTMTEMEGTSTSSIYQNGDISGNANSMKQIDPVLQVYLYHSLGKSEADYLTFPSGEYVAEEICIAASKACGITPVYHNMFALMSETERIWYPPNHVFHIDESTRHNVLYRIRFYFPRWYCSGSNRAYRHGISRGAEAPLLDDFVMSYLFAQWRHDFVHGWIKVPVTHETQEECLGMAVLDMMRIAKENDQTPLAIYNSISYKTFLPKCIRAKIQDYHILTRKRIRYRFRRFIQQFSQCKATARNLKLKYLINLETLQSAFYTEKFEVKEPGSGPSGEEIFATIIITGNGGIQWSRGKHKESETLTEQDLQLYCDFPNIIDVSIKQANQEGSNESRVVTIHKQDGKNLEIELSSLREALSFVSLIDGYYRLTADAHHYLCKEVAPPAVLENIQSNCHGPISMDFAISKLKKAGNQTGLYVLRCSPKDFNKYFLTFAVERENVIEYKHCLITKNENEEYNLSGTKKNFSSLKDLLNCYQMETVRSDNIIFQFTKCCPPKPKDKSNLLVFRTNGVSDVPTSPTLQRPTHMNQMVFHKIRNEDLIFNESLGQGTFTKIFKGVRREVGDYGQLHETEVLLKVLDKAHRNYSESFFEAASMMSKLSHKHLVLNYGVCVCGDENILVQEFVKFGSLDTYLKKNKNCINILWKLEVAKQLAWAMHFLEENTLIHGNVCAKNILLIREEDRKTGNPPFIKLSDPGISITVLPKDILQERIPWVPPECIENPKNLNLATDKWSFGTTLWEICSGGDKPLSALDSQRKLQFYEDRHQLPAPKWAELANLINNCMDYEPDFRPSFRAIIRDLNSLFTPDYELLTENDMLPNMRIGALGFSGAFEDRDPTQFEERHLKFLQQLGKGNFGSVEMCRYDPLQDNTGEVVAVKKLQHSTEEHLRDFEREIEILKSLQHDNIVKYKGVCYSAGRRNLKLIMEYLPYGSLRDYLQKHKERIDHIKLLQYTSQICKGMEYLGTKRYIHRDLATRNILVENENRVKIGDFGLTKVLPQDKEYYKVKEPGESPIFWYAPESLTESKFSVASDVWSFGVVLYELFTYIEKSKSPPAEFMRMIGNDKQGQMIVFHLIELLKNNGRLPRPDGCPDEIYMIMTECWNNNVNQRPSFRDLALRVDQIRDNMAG
Excerpt: (§3) For the compounds of the Examples, JAK activity of each of the compounds was verified using the JAK Human TK Kinase Enzymatic Radiometric Kinase Profiler Assay service provided by Eurofins Scientific.
(§4) The activity was verified after inducing a reaction at the JAK 1, 2 and 3 active sites using radioactively labeled ATP.

JAK 3 = molecular target: T2, JAK 3 (Homo sapiens, UniProt P52333); assay: JAK Human TK kinase enzymatic radiometric assay (Eurofins), JAK 3; format: biochemical; set-up: unit not given here; settings: value close to 100 indicates low JAK activity of the compound
T2 construct: purchased Eurofins Scientific (assay service)
T2 sequence (P52333 1-1124): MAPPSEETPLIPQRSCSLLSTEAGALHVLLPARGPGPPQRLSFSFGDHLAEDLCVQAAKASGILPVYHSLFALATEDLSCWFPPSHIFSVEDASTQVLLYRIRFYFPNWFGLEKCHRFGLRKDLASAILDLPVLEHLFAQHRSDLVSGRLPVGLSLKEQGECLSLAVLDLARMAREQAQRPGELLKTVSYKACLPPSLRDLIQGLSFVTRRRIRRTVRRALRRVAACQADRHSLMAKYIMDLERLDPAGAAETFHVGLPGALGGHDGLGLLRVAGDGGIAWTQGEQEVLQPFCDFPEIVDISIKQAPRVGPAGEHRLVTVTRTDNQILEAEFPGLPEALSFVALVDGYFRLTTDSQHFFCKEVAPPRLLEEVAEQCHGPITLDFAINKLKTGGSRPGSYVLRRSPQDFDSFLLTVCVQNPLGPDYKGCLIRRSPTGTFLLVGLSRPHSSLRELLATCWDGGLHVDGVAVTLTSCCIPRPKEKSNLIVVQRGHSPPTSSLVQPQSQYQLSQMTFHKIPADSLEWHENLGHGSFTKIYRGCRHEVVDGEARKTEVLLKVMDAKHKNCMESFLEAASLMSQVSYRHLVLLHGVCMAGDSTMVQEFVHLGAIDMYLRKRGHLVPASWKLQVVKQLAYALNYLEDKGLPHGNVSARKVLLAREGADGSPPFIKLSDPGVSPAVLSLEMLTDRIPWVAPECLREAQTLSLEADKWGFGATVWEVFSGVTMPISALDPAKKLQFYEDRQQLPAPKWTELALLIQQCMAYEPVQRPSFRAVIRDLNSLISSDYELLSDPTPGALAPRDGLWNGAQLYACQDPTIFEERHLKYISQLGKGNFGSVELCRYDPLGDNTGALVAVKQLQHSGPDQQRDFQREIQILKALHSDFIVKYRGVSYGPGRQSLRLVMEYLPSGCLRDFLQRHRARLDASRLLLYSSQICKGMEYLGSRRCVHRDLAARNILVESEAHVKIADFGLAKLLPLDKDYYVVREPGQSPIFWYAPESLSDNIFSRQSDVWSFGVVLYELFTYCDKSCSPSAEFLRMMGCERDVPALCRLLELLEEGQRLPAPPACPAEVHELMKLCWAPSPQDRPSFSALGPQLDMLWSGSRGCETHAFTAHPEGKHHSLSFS
Excerpt: as §3, §4

[3] = Efficacy on collagen-induced rheumatoid arthritis (arthritis score); format: in vivo, DBA/1 male mice; settings: FIG. 7
Experimental: (§5) The experimental animals were 30 8-week-old DBA/1 male mice. […] The number of normal mice was set to five in order to minimize the number of experimental animals. The group administered with Compound (1) consisted of 5 to 6 mice, a minimal number required to obtain statistically meaningful data given the limited amount of the drug.
(§6) In order to establish a rheumatoid arthritis model, 100 µL of a mixture solution in which 2 mg/mL of chick type II collagen and 1 mg/mL of Complete Freund's Adjuvant (CFA) were mixed in a ratio of 1:1 was administered intradermally to each of the mouse tails. After 19 days, 100 µL of an emulsion in which 2 mg/mL of chick type II collagen and Incomplete Freund's Adjuvant (IFA) were mixed in a ratio of 1:1 was administered intradermally to each of the mouse tails.
The test substances of Table 23 were administered orally every day according to the drug dosing period and dosing frequency. As for the rheumatoid arthritis score (arthritis score), the score of each of the four paws was quantified according to the criteria shown in the following Table 24, and the individual scores were summed to generate the final score.
as §5, with “31” for “30”, “(11)” for “(1)”, “5” for “5 to 6”, “drug. Each of the remaining groups consisted of 7 mice, with two extra mice added to account for experimental error.” for “drug.”
as §6
Oral administration was conducted daily according to the dose, dosing frequency and dosing period of Table 25. Based on the criteria shown in Table 24, rheumatoid arthritis score for the four paws were quantified and summed to generate the score.

JAK 1 = JAK 1 (Homo sapiens, UniProt P23458); assay: JAK Human TK kinase enzymatic radiometric assay (Eurofins), JAK 1; settings: value close to 100 indicates low JAK activity of the compound
Chain of JAK 1 (P23458 whole entry): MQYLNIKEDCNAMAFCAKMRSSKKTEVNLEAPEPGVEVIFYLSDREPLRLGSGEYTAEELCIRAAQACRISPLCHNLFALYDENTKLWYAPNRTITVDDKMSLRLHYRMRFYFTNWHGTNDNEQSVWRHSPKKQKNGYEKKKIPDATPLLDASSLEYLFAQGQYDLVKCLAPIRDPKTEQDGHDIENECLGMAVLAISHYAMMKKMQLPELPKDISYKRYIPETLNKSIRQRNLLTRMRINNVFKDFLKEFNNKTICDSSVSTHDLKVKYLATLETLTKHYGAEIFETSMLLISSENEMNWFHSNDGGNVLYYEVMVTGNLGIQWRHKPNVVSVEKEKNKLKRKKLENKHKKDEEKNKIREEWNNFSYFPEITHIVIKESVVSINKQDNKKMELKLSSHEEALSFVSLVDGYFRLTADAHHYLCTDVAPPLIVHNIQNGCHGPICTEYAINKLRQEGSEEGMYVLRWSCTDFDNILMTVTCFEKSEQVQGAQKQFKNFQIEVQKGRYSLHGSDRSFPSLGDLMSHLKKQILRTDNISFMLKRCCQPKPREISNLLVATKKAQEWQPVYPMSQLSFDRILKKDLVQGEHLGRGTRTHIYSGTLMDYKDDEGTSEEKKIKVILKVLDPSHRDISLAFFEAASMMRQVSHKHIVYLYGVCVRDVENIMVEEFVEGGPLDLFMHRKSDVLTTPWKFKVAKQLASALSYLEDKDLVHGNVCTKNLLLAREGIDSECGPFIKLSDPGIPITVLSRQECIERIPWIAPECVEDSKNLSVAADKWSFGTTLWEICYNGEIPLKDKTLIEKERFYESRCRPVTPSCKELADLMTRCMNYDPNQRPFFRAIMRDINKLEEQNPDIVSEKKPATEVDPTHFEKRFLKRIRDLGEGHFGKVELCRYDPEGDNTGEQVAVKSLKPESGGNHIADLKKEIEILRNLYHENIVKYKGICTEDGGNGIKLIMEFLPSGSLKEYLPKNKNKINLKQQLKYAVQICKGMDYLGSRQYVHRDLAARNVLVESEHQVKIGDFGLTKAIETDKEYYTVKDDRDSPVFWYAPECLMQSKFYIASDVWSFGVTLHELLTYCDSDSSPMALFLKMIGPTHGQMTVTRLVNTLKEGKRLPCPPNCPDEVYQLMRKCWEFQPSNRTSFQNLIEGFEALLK

[4] = DAF-2 assay of NO scavenging activity (NO donor SNAP); format: biochemical; settings: DAF-2 10 µM, SNAP 100 µM, PBS, 3 hours, 37°C
Experimental: NO scavenging activity of the pharmaceutical composition sensitive to nitrogen monoxide including the compound according to each of Examples 1 to 22, 29 to 31, and 33 to 35 was evaluated through a DAF-2 assay.
Specifically, a reagent stock solution was made using DMSO (dimethyl sulfoxide) in order to prepare 5 mM of DAF-2, 100 mM of SNAP and 5 mM of the compound synthesized in each of the Examples, and for the reaction, the solution was added to a PBS (phosphate buffered saline) solution so that DAF-2, SNAP and the compound had final concentrations of 10 µM, 100 µM and the concentration of Table 1, respectively, followed by a reaction for 3 hours in a 37°C incubator.

Structure (SMILES) | activity at 10 µM (Raw 264.7 cell line) | activity at 10 µM (splenocytes [1]) | activity at 10 µM (IFN-γ) | inhibition at 10 µM (splenocytes [2]) | JAK 1 Activity (JAK 1; 0.1 nM) | JAK 1 Activity (JAK 1; 1 nM) | JAK 1 Activity (JAK 1; 10 nM) | JAK 1 Activity (JAK 1; 100 nM) | NO Scavenging Activity (%) (Mean±SD) ([4]; compound 1 µM) | NO Scavenging Activity (%) (Mean±SD) ([4]; compound 5 µM) | NO Scavenging Activity (%) (Mean±SD) ([4]; compound 10 µM) | other results
C[C@@H]1CCN(C(=O)CC#N)C[C@@H]1N(C)c1ncnc2c1ccn2C(=O)N(C(=O)Nc1ccccc1N)c1ccccc1N [Example 11, N-(2-aminophenyl)-N-((2-aminophenyl)carbamoyl)-4-(((3R,4R)-1-(2-cyanoacetyl)-4-methylpiperidin-3-yl)(methyl)amino)-7H-pyrrolo[2,3-d]pyrimidine-7-carboxamide] | 48.7 ± 0.01% | 67.7 ± 0.84% | 57.6 ± 15.5% | 49.7 ± 3.78% | 108 | 103 | 105 | 101 |  |  |  | JAK 2 Activity (JAK 2; 0.1 nM): 91; JAK 2 Activity (JAK 2; 1 nM): 99; JAK 2 Activity (JAK 2; 10 nM): 89; JAK 2 Activity (JAK 2; 100 nM): 98; JAK 3 Activity (JAK 3; 0.1 nM): 103; JAK 3 Activity (JAK 3; 1 nM): 103; JAK 3 Activity (JAK 3; 10 nM): 98; JAK 3 Activity (JAK 3; 100 nM): 94; rheumatoid arthritis-alleviating efficacy compared with tofacitinib ([3]; 20 mg/kg oral once daily (QD) vs tofacitinib 10 mg/kg BID, entire 40-day period): alleviating efficacy comparable to that of tofacitinib; rheumatoid arthritis-alleviating efficacy (arthritis score), statistics ([3]; 20 mg/kg oral once daily (QD)): no statistical differences were verified
CC[C@@H]1CN(C(=O)NCC(F)(F)F)C[C@@H]1c1cnc2cnc3c(ccn3C(=O)Nc3ccc(N(C)C)cc3N)n12 [Example 30, N-(2-amino-4-(dimethylamino)phenyl)-8-((3R,4S)-4-ethyl-1-((2,2,2-trifluoroethyl)carbamoyl)pyrrolidin-3-yl)-3H-imidazo[1,2-a]pyrrolo[2,3-e]pyrazine-3-carboxamide] | 91.6 ± 0.68% | 98.1 ± 0.09% | 91.5 ± 1.37% | 55 ± 8.48% |  |  |  |  | 83.14 ±2.29% | 86.44 ±1.93% | 88.19 ±1.75% | 
CC[C@@H]1CN(C(=O)NCC(F)(F)F)C[C@@H]1c1cnc2cnc3c(ccn3C(=O)Nc3ccccc3N)n12 [Example 29, N-(2-aminophenyl)-8-((3R,4S)-4-ethyl-1-((2,2,2-trifluoroethyl)carbamoyl)pyrrolidin-3-yl)-3H-imidazo[1,2-a]pyrrolo[2,3-e]pyrazine-3-carboxamide] | 90.1 ± 0.74% | 88.5 ± 0.47% | 100% | 78 ± 6.9% |  |  |  |  | 3.68± 7.63% | 1.71± 4.16% | 25.18 ±3.14% | 
C[C@@H]1CCN(C(=O)CC#N)C[C@@H]1N(C)c1ncnc2c1ccn2C(=O)N(C)CCN(C)C(=O)Nc1cc(N(C)C)ccc1N [Example 21, N-(2-(3-(2-amino-5-(dimethylamino)phenyl)-1-methylureido)ethyl)-4-(((3R,4R)-1-(2-cyanoacetyl)-4-methylpiperidin-3-yl) (methyl)amino)-N-methyl-7H-pyrrolo[2,3-d]pyrimidine-7-carboxamide] | 61.2 ± 0.15% | 52.4 ± 0.67% | 98.1 ± 0.03% | 48.3 ± 3.72% | 97 | 105 | 102 | 85 | 2.57± 1.66% | 38.13 ±1.01% | 66.27 ±0.14% | 
